These results are taken from PMC4187893, “Biochemical and Antiparasitic Properties of Inhibitors of the Plasmodium falciparum Calcium-Dependent Protein Kinase PfCDPK1” (Antimicrobial Agents and Chemotherapy, 2014).

The test system of one data set is P. berghei. The arrangement: method as in PMID 24689770. The settings on record: mice, 50 mg/kg po, groups of three mice; mean (SD); cited from earlier work.
Details of data set [1]: method as in PMID 24689770. The settings on record: cited from earlier work.
The next data set relates to P. falciparum 3D7. The data set is described as follows: FACS assay for parasite growth. Particulars: read-out: Parasite growth inhibition EC50; FACS; mean (SD), n = 3. Background: A flow cytometer gives signals particle by particle.
A further data set concerns the target PvCDPK1 (Plasmodium vivax, UniProt A5KBU9). The data set is described as follows: Rh-ParM ADP sensor IC50 assay, PvCDPK1. The settings on record: read-out: IC50 PvCDPK1; Rh-ParM, absence of MTIP; mean (SD), n = 3.
The conditions of data set [2]: P. berghei mouse model; cited from earlier work.
A further data set addresses PfCDPK1 T145Q (Plasmodium falciparum, UniProt P62344, T145Q). Put plainly: Rh-ParM ADP sensor assay, gatekeeper mutant T145Q. Particulars: Ki, absence of MTIP.
The next data set has as its target PbCDPK1 (Plasmodium berghei, UniProt A0A509AHB6). Put plainly: Rh-ParM ADP sensor IC50 assay, PbCDPK1. The settings on record: read-out: IC50 PbCDPK1; Rh-ParM, absence of MTIP; mean (SD), n = 3.
A further data set addresses PfCDPK1 (Plasmodium falciparum, UniProt P62344). Put plainly: Thermal shift assay. It counts as binding. The arrangement: 50 nM full-length recombinant PfCDPK1 and 8 μM MTIP in assay buffer 1; GST (from vector pGEX6P1) (N, cleaved yes); made in house; host or cells: Escherichia coli BL21 Gold. The settings on record: 10 μM compound, relative to DMSO controls. The procedure:
Purified recombinant PfCDPK1 was diluted to 1 μM in 10 mM HEPES buffer (pH 7.5) containing 150 mM NaCl, 1 mM Ca^2+, and 1/1,000 SYPRO orange dye (Invitrogen). Test compounds were prediluted to 400 μM in 40% (vol/vol) DMSO in water, and 1 μl of diluted compound was added to 39 μl of enzyme/dye mix in white 96-well quantitative PCR plates (Thermo Scientific) to give a final compound concentration of 10 μM. Reference thermal melting temperatures (Tms) were obtained in parallel by the addition of 1 μl of 40% (vol/vol) DMSO to 39 μl of diluted PfCDPK1. The plates were sealed with transparent adhesive covers (Bio-Rad) and subjected to a temperature gradient from […] at a rate of 1 K/min using a quantitative PCR machine (MX3005P; Stratagene). Fluorescence data were acquired at 1-min intervals using the 6-carboxyfluorescein (FAM)/5-carboxy-X-rhodamine (ROX) filter set (λex = 492 nm; λem = 610 nm), and the raw data were exported to Excel (Microsoft) for analysis. Data were processed to identify the fluorescence maxima and minima, and the midpoints of melting curves were determined by fitting to the Boltzmann equation using XL-fit software (IDBS). Results were expressed as ΔTm values relative to DMSO controls where ΔTm = Tm in the presence of inhibitor − Tm of the DMSO controls.

Details of data set [3]: method as in PMID 24689770. Particulars: cited from earlier work. This is another data set of the same source.

PvCDPK1, sequence (A5KBU9 entry or part of it): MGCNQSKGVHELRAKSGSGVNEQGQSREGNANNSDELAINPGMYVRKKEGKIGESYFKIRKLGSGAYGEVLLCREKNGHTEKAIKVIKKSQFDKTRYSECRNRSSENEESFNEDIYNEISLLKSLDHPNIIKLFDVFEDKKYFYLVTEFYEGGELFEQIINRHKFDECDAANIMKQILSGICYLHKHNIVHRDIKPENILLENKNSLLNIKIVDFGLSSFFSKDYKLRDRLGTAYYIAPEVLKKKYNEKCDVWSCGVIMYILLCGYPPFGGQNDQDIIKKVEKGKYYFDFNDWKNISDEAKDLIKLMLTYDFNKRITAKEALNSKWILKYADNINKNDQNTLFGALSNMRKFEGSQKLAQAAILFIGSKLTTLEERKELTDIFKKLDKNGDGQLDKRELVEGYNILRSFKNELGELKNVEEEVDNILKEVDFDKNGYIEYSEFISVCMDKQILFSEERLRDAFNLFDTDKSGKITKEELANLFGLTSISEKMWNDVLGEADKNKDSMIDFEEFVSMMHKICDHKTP
PfCDPK1, sequence (P62344 whole entry): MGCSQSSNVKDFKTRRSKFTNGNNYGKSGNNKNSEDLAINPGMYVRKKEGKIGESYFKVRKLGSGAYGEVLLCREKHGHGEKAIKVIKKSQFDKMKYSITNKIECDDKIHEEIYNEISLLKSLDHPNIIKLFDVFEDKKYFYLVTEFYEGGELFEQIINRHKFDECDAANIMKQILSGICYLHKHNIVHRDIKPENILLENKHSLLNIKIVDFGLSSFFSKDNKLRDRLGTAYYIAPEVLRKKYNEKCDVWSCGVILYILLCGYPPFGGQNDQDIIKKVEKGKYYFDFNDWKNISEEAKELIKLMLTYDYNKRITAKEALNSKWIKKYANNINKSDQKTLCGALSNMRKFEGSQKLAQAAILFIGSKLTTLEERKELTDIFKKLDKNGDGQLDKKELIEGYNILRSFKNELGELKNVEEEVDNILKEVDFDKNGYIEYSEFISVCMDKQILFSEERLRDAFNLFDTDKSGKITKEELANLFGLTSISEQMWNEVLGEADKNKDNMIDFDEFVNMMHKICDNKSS
PbCDPK1, sequence (A0A509AHB6 whole entry): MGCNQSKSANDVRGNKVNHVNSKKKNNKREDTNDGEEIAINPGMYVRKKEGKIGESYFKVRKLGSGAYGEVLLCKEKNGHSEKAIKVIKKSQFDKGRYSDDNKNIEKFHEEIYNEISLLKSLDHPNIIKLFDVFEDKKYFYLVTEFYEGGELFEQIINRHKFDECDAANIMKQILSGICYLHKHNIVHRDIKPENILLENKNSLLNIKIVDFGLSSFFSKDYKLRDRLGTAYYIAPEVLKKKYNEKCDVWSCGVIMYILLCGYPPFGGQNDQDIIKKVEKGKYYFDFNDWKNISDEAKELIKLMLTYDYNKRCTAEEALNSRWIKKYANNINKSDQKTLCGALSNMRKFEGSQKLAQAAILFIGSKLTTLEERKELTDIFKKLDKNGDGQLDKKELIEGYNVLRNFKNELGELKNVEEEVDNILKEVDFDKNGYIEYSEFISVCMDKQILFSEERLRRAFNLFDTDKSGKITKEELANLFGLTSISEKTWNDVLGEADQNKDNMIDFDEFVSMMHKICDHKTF
PfCDPK1 T145Q, sequence (P62344 whole entry T145Q): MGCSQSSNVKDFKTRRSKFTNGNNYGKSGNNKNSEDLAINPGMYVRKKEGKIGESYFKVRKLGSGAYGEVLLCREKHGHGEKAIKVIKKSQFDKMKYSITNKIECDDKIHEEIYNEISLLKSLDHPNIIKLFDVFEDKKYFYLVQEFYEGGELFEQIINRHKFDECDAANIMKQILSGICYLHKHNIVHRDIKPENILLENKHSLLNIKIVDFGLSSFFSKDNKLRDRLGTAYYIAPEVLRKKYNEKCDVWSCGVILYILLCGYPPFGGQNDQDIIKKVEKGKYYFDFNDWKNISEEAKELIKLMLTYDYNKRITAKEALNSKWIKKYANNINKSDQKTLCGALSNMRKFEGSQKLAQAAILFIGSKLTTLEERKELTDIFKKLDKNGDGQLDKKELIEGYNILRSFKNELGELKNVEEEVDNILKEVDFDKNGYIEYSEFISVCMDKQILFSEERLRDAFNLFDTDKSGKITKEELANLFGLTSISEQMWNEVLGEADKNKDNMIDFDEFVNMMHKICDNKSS

In general, EC50 refers to the concentration giving half of the maximal effect. Usually IC50 stands for the concentration needed to halve the response being measured. Consider `CC(C)CCNc1ccc(-c2cnc3ccc(NC4CCN(C)CC4)nn23)cn1` [Compound 1], for which the “% reduction in parasitemia in vivo (po)” value in the data set with P. berghei was 46 (4) %. Also, the mlogD in data set [1] is recorded as 3.4. The concentration for a half-maximal effect (EC50) in the data set on P. falciparum 3D7 amounted to 439 nM. Further, the IC50 on PvCDPK1 was less than 10 nM.

With `NC1CCC(Nc2ccc3ncc(-c4cnc(Nc5ncccc5F)nc4)n3n2)CC1` (centres unmarked) [Compound 2], in data set [2], the “plasma exposure” value is “poor plasma exposure”. Also, the mlogD in data set [1] is given as 0.2. In addition, the EC50 in the data set on P. falciparum 3D7 is 13 nM.

For the compound `CN[C@@H]1C[C@H]2O[C@@](C)([C@@H]1OC)n1c3ccccc3c3c4c(c5c6ccccc6n2c5c31)C(=O)NC4` [Staurosporine], the “difference in potency between wild-type enzyme and T145Q” value on PfCDPK1 T145Q is reported as “no substantial differences”.

For `CN1CCC(Nc2ccc3ncc(-c4ccc(Nc5ncc(Cl)cc5F)cc4)n3n2)CC1` [Compound 6], the IC50 at PbCDPK1 and at PvCDPK1 was less than 10 nM in each case. Moreover, the mlogD in data set [1] was 3.7. Further, the “ΔTm PfCDPK1” value on PfCDPK1 is recorded as 22 K.

On to `Cc1ccc(F)c(Nc2ccc(-c3cnc4ccc(NC5CCC(N)CC5)nn34)cc2)n1` (centres unmarked) [Compound 7], for which the IC50 at PbCDPK1 and on PvCDPK1 was less than 10 nM in each case. The “PAMPA Papp” value in data set [3] was 1.8 ×10⁻⁶ cm/s. In [1], the mlogD was 2.2. The “ΔTm PfCDPK1” value on PfCDPK1 worked out at 23 K.
